Assay results taken from US8247211B2, “Glycopeptide antibiotics” (American Cyanamid Company, priority 2001, dated 2012).
Values after ≈ are worked out from the molar mass of the structure shown.

Legend:
[1] = system: Enterococcus sp.; assay: In vitro antibacterial evaluation: minimum inhibitory concentration (MIC), broth dilution method; assay type: cell-based
Summary of the method: (§1)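 Following NCCLS approved standard M7-A2, compounds are serially diluted from 64 to 0.06 μg/mL in Muller-Hinton II […] and inoculated at 5×10^5 CFU/mL; the MIC is the minimum concentration at which growth is inhibited.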

[2] = system: Escherichia coli; assay: as above; assay type: cell-based
Summary of the method: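 Broth dilution per NCCLS M7-A2 in Muller-Hinton II […], inoculum 5×10^5 CFU/mL, antibiotic tested over 64-0.06 μg/mL. MIC is taken as the lowest concentration that inhibits growth. Panel includes recent clinical isolates resistant to methicillin, penicillin and/or vancomycin.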

[3] = system: Staphylococcus sp.; assay: as above; assay type: cell-based
Summary of the method: as §1

[4] = system: Streptococcus sp.; assay: as above; assay type: cell-based
Summary of the method: as §1

[5] = system: Staphylococcus aureus-SMITH (GC 4543); assay: Acute lethal infection in mice (ED50); assay type: in vivo; details: female CD-1 mice, intraperitoneal challenge, intravenous dose 30 min. after infection, 7 day survival ratios
Summary of the method: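 Bacteria suspended in Trypticase Soy Broth or hog gastric mucin are injected intraperitoneally into female CD-1 mice at a dose killing untreated animals within 24-48 hr. Thirty minutes later, test agent is administered intravenously. Survival at day 7 is scored.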

[6] = broth dilution, 5×10^5 CFU/mL, 18 hours at 35° C.
[7] = 5×10^5 CFU/mL, 18 hours at 35° C.
[8] = strain ATCC 29213, broth dilution, 18 hours at 35° C.
[9] = strain GC 1131, broth dilution, 18 hours at 35° C.
[10] = strain GC 3051, broth dilution, 18 hours at 35° C.
[11] = strain GC 3053, broth dilution, 18 hours at 35° C.
[12] = strain GC 4541, broth dilution, 18 hours at 35° C.
[13] = strain GC 4542, broth dilution, 18 hours at 35° C.
[14] = strain GC 4543, broth dilution, 18 hours at 35° C.
[15] = strain GC 4544, broth dilution, 18 hours at 35° C.
[16] = strain GC 4545, broth dilution, 18 hours at 35° C.
[17] = strain GC 4546, broth dilution, 18 hours at 35° C.
[18] = strain GC 4547, broth dilution, 18 hours at 35° C.
[19] = strain GC 4548, broth dilution, 18 hours at 35° C.
[20] = strain GC 4549, broth dilution, 18 hours at 35° C.
[21] = strain GC 4551, broth dilution, 18 hours at 35° C.
[22] = strain GC 6257, broth dilution, 18 hours at 35° C.

Compound: COc1cccc(C2OCC3OC(OC4C(CO)OC(Oc5ccc(CC6NC(=O)C(C(C)c7ccccc7)NC(=O)CNC(=O)C(CO)NC(=O)C(C(O)C7CNC(=N)N7C7OC(CO)C(O)C(O)C7O)NC(=O)C(C(O)C7CNC(=N)N7)NC6=O)cc5)C(O)C4O)C(O)C(O)C3O2)c1 (stereo not drawn) [Example 137, Cyclo[glycyl-β-methylphenylalanyl-O-[4-O-[4,6-O-(3-methoxybenzylidene)hexopyranosyl]-hexopyranosyl]-tyrosyl-3-(2-iminoimidazolidin-4-yl)seryl-3-(3-hexopyranosyl-2-iminoimidazolidin-4-yl)serylseryl]]
- MIC Enterococccus avium (GC 4558) [1, 6]: 4 to 8 µg/mL
- MIC Enterococccus faecalis (ATCC 29212) [1, 6]: 4 to 8 µg/mL
- MIC Enterococccus faecalis (GC 2691) [1, 6]: 4 to 8 µg/mL
- MIC Enterococccus faecalis (GC 3059) [1, 6]: 4 to 8 µg/mL
- MIC Enterococccus faecalis (GC 4552) [1, 6]: 4 to 8 µg/mL
- MIC Enterococccus faecalis (GC 4553) [1, 6]: 4 to 8 µg/mL
- MIC Enterococccus faecalis (GC 4554) [1, 6]: 4 to 8 µg/mL
- MIC Enterococccus faecalis (GC 6189) [1, 6]: 4 µg/mL (≈ 2.83 µM)
- MIC Enterococccus faecium (GC 2243) [1, 6]: 4 to 8 µg/mL
- MIC Enterococccus faecium (GC 4556) [1, 6]: 4 to 8 µg/mL
- MIC Enterococccus faecium (GC 4557) [1, 6]: 2 to 4 µg/mL
- MIC Enterococcus faecalis (GC 2242) [1, 6]: 4 to 8 µg/mL
- MIC Escherichia coli (ATCC 25922) [2, 7]: 64 µg/mL (≈ 45.3 µM)
- MIC Escherichia coli (GC 4560) [2, 7]: 1 µg/mL (≈ 0.708 µM)
- MIC Coagulase Negative Staphylococcus (GC 4547) [3, 6]: 1 to 2 µg/mL
- MIC Coagulase Negative Staphylococcus (GC 4548) [3, 6]: 0.5 to 2 µg/mL
- MIC Coagulase Negative Staphylococcus (GC 4549) [3, 6]: 0.5 to 1 µg/mL
- MIC Coagulase Negative Staphylococcus (GC 4551) [3, 6]: 1 to 2 µg/mL
- MIC Coagulase Negative Staphylococcus (GC 6257) [3, 6]: 1 µg/mL (≈ 0.708 µM)
- MIC Staphylococcus aureus-SMITH (GC 4543) [3, 6]: 1 to 2 µg/mL
- MIC Staphylococcus haemolyticus (GC 4546) [3, 6]: 1 µg/mL (≈ 0.708 µM)
- MIC Staphylococcus aureus (ATCC 29213) ([3]; strain ATCC 29213): 1 to 2 µg/mL
- MIC Staphylococcus aureus (ATCC 29213) [3, 8]: 1 to 2 µg/mL
- MIC Staphylococcus aureus (GC 1131) ([3]; strain GC 1131): 2 µg/mL (≈ 1.42 µM)
- MIC Staphylococcus aureus (GC 1131) [3, 9]: 2 µg/mL (≈ 1.42 µM)
- MIC Staphylococcus aureus (GC 3051) ([3]; strain GC 3051): 1 to 2 µg/mL
- MIC Staphylococcus aureus (GC 3051) [3, 10]: 1 to 2 µg/mL
- MIC Staphylococcus aureus (GC 3053) ([3]; strain GC 3053): 2 to 4 µg/mL
- MIC Staphylococcus aureus (GC 3053) [3, 11]: 2 to 4 µg/mL
- MIC Staphylococcus aureus (GC 4541) ([3]; strain GC 4541): 1 to 2 µg/mL
- MIC Staphylococcus aureus (GC 4541) [3, 12]: 1 to 2 µg/mL
- MIC Staphylococcus aureus (GC 4542) ([3]; strain GC 4542): 1 to 2 µg/mL
- MIC Staphylococcus aureus (GC 4542) [3, 13]: 1 to 2 µg/mL
- MIC Staphylococcus aureus-SMITH (GC 4543) [3, 14]: 1 to 2 µg/mL
- MIC Staphylococcus aureus (GC 4544) ([3]; strain GC 4544): 2 µg/mL (≈ 1.42 µM)
- MIC Staphylococcus aureus (GC 4544) [3, 15]: 2 µg/mL (≈ 1.42 µM)
- MIC Staphylococcus aureus (GC 4545) ([3]; strain GC 4545): <2 to 4 µg/mL
- MIC Staphylococcus aureus (GC 4545) [3, 16]: 2 to 4 µg/mL
- MIC Staphylococcus haemolyticus (GC 4546) [3, 17]: 1 µg/mL (≈ 0.708 µM)
- MIC Coagulase Negative Staphylococcus (GC 4547) [3, 18]: 1 to 2 µg/mL
- MIC Coagulase Negative Staphylococcus (GC 4548) [3, 19]: 0.5 to 2 µg/mL
- MIC Coagulase Negative Staphylococcus (GC 4549) [3, 20]: 0.5 to 1 µg/mL
- MIC Coagulase Negative Staphylococcus (GC 4551) [3, 21]: 1 to 2 µg/mL
- MIC Coagulase Negative Staphylococcus (GC 6257) [3, 22]: 1 µg/mL (≈ 0.708 µM)
- MIC Streptococcus agalactiae (GC 4564) [4, 6]: 0.5 µg/mL (≈ 0.354 µM)
- MIC Streptococcus pneumoniae (GC 1894) [4, 6]: <0.06 µg/mL
- MIC Streptococcus pneumoniae (GC 4565) [4, 6]: 0.25 µg/mL (≈ 0.177 µM)
- MIC Streptococcus pneumonine (ATCC 6301) [4, 6]: 0.12 µg/mL (≈ 0.0849 µM)
- MIC Streptococcus pyogenes (GC 4563) [4, 6]: 0.25 µg/mL (≈ 0.177 µM)
- median effective dose (ED50), Staphylococcus aureus-SMITH (GC 4543) [5]: 0.24 mg/kg

Compound: CC(c1ccccc1)C1NC(=O)CNC(=O)C(CO)NC(=O)C(C(O)C2CNC(=N)N2C2OC(CO)C(O)C(O)C2O)NC(=O)C(C(O)C2CNC(=N)N2)NC(=O)C(Cc2ccc(OC3OC(CO)C(OC4OC5COC(c6ccc7c(c6)OCO7)OC5C(O)C4O)C(O)C3O)cc2)NC1=O (stereo not drawn) [Example 143, Cyclo[glycyl-β-methylphenylalanyl-O-[4-O-[4,6-O-(1,3-benzodioxol-5-ylmethylene)hexopyranosyl]hexopyranosyl]tyrosyl-3-(2-iminoimidazolidin-4-yl)seryl-3-(3-hexopyranosyl-2-iminoimidazolidin-4-yl)serylseryl]]
- MIC Enterococcus faecalis (GC 2691) ([1]; strain GC 2691): 8 µg/mL (≈ 5.6 µM)
- MIC Enterococcus faecium (GC 4557) ([1]; strain GC 4557): 2 to 8 µg/mL
- MIC Escherichia coli (ATCC 25922) ([2]; strain ATCC 25922): >64 µg/mL
- MIC Escherichia coli (GC 4559) ([2]; strain GC 4559): 64 µg/mL (≈ 44.8 µM)
- MIC Escherichi coli (GC 4560) ([2]; strain GC 4560): 1 to 2 µg/mL
- MIC Coagulase Negative Staphylococcus (GC 4547) [3, 6]: 1 to 2 µg/mL
- MIC Coagulase Negative Staphylococcus (GC 4548) [3, 6]: 1 to 2 µg/mL
- MIC Coagulase Negative Staphylococcus (GC 4549) [3, 6]: 1 µg/mL (≈ 0.701 µM)
- MIC Coagulase Negative Staphylococcus (GC 4551) [3, 6]: 2 to 4 µg/mL
- MIC Coagulase Negative Staphylococcus (GC 6257) [3, 6]: 1 to 2 µg/mL
- MIC Staphylococcus aureus (ATCC 29213) [3, 6]: 2 to 4 µg/mL
- MIC Staphylococcus aureus (GC 1131) [3, 6]: 2 to 4 µg/mL
- MIC Staphylococcus aureus (GC 3051) [3, 6]: 2 to 4 µg/mL
- MIC Staphylococcus aureus (GC 3053) [3, 6]: 4 to 8 µg/mL
- MIC Staphylococcus aureus (GC 4541) [3, 6]: 2 to 4 µg/mL
- MIC Staphylococcus aureus (GC 4542) [3, 6]: 1 to 4 µg/mL
- MIC Staphylococcus aureus (GC 4544) [3, 6]: 2 to 8 µg/mL
- MIC Staphylococcus aureus (GC 4545) [3, 6]: 2 to 4 µg/mL
- MIC Staphylococcus aureus-SMITH (GC 4543) [3, 6]: 2 to 4 µg/mL
- MIC Staphylococcus haemolyticus (GC 4546) [3, 6]: 0.5 to 2 µg/mL
- MIC Staphylococcus aureus (ATCC 29213) [3, 8]: 2 to 4 µg/mL
- MIC Staphylococcus aureus (GC 1131) [3, 9]: 2 to 4 µg/mL
- MIC Staphylococcus aureus (GC 3051) [3, 10]: 2 to 4 µg/mL
- MIC Staphylococcus aureus (GC 3053) [3, 11]: 4 to 8 µg/mL
- MIC Staphylococcus aureus (GC 4541) [3, 12]: 2 to 4 µg/mL
- MIC Staphylococcus aureus (GC 4542) [3, 13]: 1 to 4 µg/mL
- MIC Staphylococcus aureus-SMITH (GC 4543) [3, 14]: 2 to 4 µg/mL
- MIC Staphylococcus aureus (GC 4544) [3, 15]: 2 to 8 µg/mL
- MIC Staphylococcus aureus (GC 4545) [3, 16]: 2 to 4 µg/mL
- MIC Staphylococcus haemolyticus (GC 4546) [3, 17]: 0.5 to 2 µg/mL
- MIC Coagulase Negative Staphylococcus (GC 4547) [3, 18]: 1 to 2 µg/mL
- MIC Coagulase Negative Staphylococcus (GC 4548) [3, 19]: 1 to 2 µg/mL
- MIC Coagulase Negative Staphylococcus (GC 4549) [3, 20]: 1 µg/mL (≈ 0.701 µM)
- MIC Coagulase Negative Staphylococcus (GC 4551) [3, 21]: 2 to 4 µg/mL
- MIC Coagulase Negative Staphylococcus (GC 6257) [3, 22]: 1 to 2 µg/mL
- MIC Streptococcus agalactiae (GC 4564) ([4]; strain GC 4564): 0.5 to 1 µg/mL
- median effective dose (ED50), Staphylococcus aureus-SMITH (GC 4543) [5]: 0.28 mg/kg
